Test results as given in patent publication US12295936B2, “Immunomodulating urea azalides” (Zoetis Services LLC, priority 2020, dated 2025).
Like-named read-outs stand apart in the source and are kept apart here.

Assays:
Test in all cases: LPS-stimulated whole bovine blood assay, MSD cytokine detection
Type in all cases: cell-based
[1] = test system: IL-6; conditions: LPS-stimulated bovine whole blood, read-out: IL-6 (IC50 μM)
From the text: In order to correlate RNA sequencing data to cytokine changes the whole blood assay was utilized. […] The enhancement result represents an overall stimulation of cytokine levels due to cellular stress or potential toxicity with increasing concentrations of the compound, representing a typical bell shape response curve for immunomodulatory activity.

[2] = test system: IL-1β; conditions: overstimulation of IL-1β, LPS-stimulated bovine whole blood
[3] = test system: TNF-α; conditions: LPS-stimulated bovine whole blood, read-out: TNF-α (IC50 μM)

| Molecule | IC50 ([1]; Bos taurus) [µM] | IL-1β OS of LPS [2] [µM] | IC50 ([3]; Bos taurus) [µM] | IC50 [1] [µM] | IC50 [3] [µM] |
| --- | --- | --- | --- | --- | --- |
| CC[C@H]1OC(=O)[C@H](C)[C@@H](O)[C@H](C)[C@@H](O[C@@H]2O[C@H](C)C[C@H](N(C)C(=O)Nc3ccccc3OC)[C@H]2O)[C@](C)(O)C[C@@H](C)CN[C@H](C)[C@@H](O)[C@]1(C)O [Example A-8, 1-((2S,3R,4S,6R)-2-(((2R,3S,4R,5R,8R,10R,11R,12S,13S,14R)-2-ethyl-3,4,10,13-tetrahydroxy-3,5,8,10,12,14-hexamethyl-15-oxo-1-oxa-6-azacyclopentadecan-11-yl)oxy)-3-hydroxy-6-methyltetrahydro-2H-pyran-4-yl)-3-(2-methoxyphenyl)-1-methylurea] | 16 | 101 | > 250 |  |  |
| CC[C@H]1OC(=O)[C@H](C)[C@@H](O[C@H]2C[C@@](C)(OC)[C@](O)(CN3CCN(C)CC3)[C@H](C)O2)[C@H](C)[C@@H](O[C@@H]2O[C@H](C)C[C@H](N(C)C(N)=O)[C@H]2O)[C@](C)(O)C[C@@H](C)CN[C@H](C)[C@@H](O)[C@]1(C)O [Example J-5, 1-((2S,3R,4S,6R)-2-(((2R,3S,4R,5R,8R,10R,11R,12S,13S,14R)-2-ethyl-3,4,10-trihydroxy-13-(((2R,4R,5S,6S)-5-hydroxy-4-methoxy-4,6-dimethyl-5-((4-methylpiperazin-1-yl)methyl)tetrahydro-2H-pyran-2-yl)oxy)-3,5,8,10,12,14-hexamethyl-15-oxo-1-oxa-6-azacyclopentadecan-11-yl)oxy)-3-hydroxy-6-methyltetrahydro-2H-pyran-4-yl)-1-methylurea] | > 500 | >500 | > 500 |  |  |
| CC[C@H]1OC(=O)[C@H](C)[C@@H](O[C@H]2C[C@@](C)(OC)[C@](O)(Cn3ccnn3)[C@H](C)O2)[C@H](C)[C@@H](O[C@@H]2O[C@H](C)C[C@H](N(C)C(=O)N(C)c3ccccc3)[C@H]2O)[C@](C)(O)C[C@@H](C)CN[C@H](C)[C@@H](O)[C@]1(C)O [Example J-28, 1-((2S,3R,4S,6R)-2-(((2R,3S,4R,5R,8R,10R,11R,12S,13S,14R)-13-(((2R,4R,5S,6S)-5-((1H-1,2,3-triazol-1-yl)methyl)-5-hydroxy-4-methoxy-4,6-dimethyltetrahydro-2H-pyran-2-yl)oxy)-2-ethyl-3,4,10-trihydroxy-3,5,8,10,12,14-hexamethyl-15-oxo-1-oxa-6-azacyclopentadecan-11-yl)oxy)-3-hydroxy-6-methyltetrahydro-2H-pyran-4-yl)-1,3-dimethyl-3-phenylurea] | 152 | 100 | 57 |  |  |
| CC[C@H]1OC(=O)[C@H](C)[C@@H](O[C@H]2C[C@@](C)(OC)[C@H](O)[C@H](C)O2)[C@H](C)[C@@H](O[C@@H]2O[C@H](C)C[C@H](N(C)C(=O)N(C)c3ccc(C(F)(F)F)cc3)[C@H]2O)[C@](C)(O)C[C@@H](C)CN[C@H](C)[C@@H](O)[C@]1(C)O [Example B-2a, 1-((2S,3R,4S,6R)-2-(((2R,3S,4R,5R,8R,10R,11R,12S,13S,14R)-2-ethyl-3,4,10-trihydroxy-13-(((2R,4R,5R,6S)-5-hydroxy-4-methoxy-4,6-dimethyltetrahydro-2H-pyran-2-yl)oxy)-3,5,8,10,12,14-hexamethyl-15-oxo-1-oxa-6-azacyclopentadecan-11-yl)oxy)-3-hydroxy-6-methyltetrahydro-2H-pyran-4-yl)-1,3-dimethyl-3-(4-(trifluoromethyl)phenyl)urea] | 23 | 16 | 9 |  |  |
| CC[C@H]1OC(=O)[C@H](C)[C@@H](O[C@H]2C[C@@](C)(OC)[C@](O)(CNCCCN3CCCCC3)[C@H](C)O2)[C@H](C)[C@@H](O[C@@H]2O[C@H](C)C[C@H](N(C)C(=O)N(C)c3ccccc3)[C@H]2O)[C@](C)(O)C[C@@H](C)CN[C@H](C)[C@@H](O)[C@]1(C)O [Example H-38, 1-((2S,3R,4S,6R)-2-(((2R,3S,4R,5R,8R,10R,11R,12S,13S,14R)-2-ethyl-3,4,10-trihydroxy-13-(((2R,4R,5S,6S)-5-hydroxy-4-methoxy-4,6-dimethyl-5-(((3-(piperidin-1-yl)propyl)amino)methyl)tetrahydro-2H-pyran-2-yl)oxy)-3,5,8,10,12,14-hexamethyl-15-oxo-1-oxa-6-azacyclopentadecan-11-yl)oxy)-3-hydroxy-6-methyltetrahydro-2H-pyran-4-yl)-1,3-dimethyl-3-phenylurea] | 36 | >250 | 49 |  |  |
| CC[C@H]1OC(=O)[C@H](C)[C@@H](O)[C@H](C)[C@@H](O[C@@H]2O[C@H](C)C[C@H](N(C)C(=O)Nc3ccncc3)[C@H]2O)[C@](C)(O)C[C@@H](C)CN[C@H](C)[C@@H](O)[C@]1(C)O [Example A-5, 1-((2S,3R,4S,6R)-2-(((2R,3S,4R,5R,8R,10R,11R,12S,13S,14R)-2-ethyl-3,4,10,13-tetrahydroxy-3,5,8,10,12,14-hexamethyl-15-oxo-1-oxa-6-azacyclopentadecan-11-yl)oxy)-3-hydroxy-6-methyltetrahydro-2H-pyran-4-yl)-1-methyl-3-(pyridin-4-yl)urea] | > 250 | 24 | > 250 |  |  |
| 3-ethyl-1-((2S,3R,4S,6R)-2-(((2R,3S,4R,5R,8R,10R,11R,12S,13S,14R)-2-ethyl-3,4,10-trihydroxy-13-(((2R,4R,5S,6S)-5-hydroxy-4-methoxy-4,6-dimethyl-5-((4-methylpiperazin-1-yl)methyl)tetrahydro-2H-pyran-2-yl)oxy)-3,5,8,10,12,14-hexamethyl-15-oxo-1-oxa-6-azacyclopentadecan-11-yl)oxy)-3-hydroxy-6-methyltetrahydro-2H-pyran-4-yl)-1-methylurea [Example J-9] |  | >500 |  | > 500 | > 500 |
| CC[C@H]1OC(=O)[C@H](C)[C@@H](O[C@H]2C[C@@](C)(OC)[C@](O)(CN3CCN(C)CC3)[C@H](C)O2)[C@H](C)[C@@H](O[C@@H]2O[C@H](C)C[C@H](N(C)C(=O)NC3CCCCC3)[C@H]2O)[C@](C)(O)C[C@@H](C)CN[C@H](C)[C@@H](O)[C@]1(C)O [Example J-1, 3-cyclohexyl-1-((2S,3R,4S,6R)-2-(((2R,3S,4R,5R,8R,10R,11R,12S,13S,14R)-2-ethyl-3,4,10-trihydroxy-13-(((2R,4R,5S,6S)-5-hydroxy-4-methoxy-4,6-dimethyl-5-((4-methylpiperazin-1-yl)methyl)tetrahydro-2H-pyran-2-yl)oxy)-3,5,8,10,12,14-hexamethyl-15-oxo-1-oxa-6-azacyclopentadecan-11-yl)oxy)-3-hydroxy-6-methyltetrahydro-2H-pyran-4-yl)-1-methylurea] | 250 | 200 | 70 |  |  |
| CCCNC[C@]1(O)[C@H](C)O[C@@H](O[C@H]2[C@H](C)[C@@H](O[C@@H]3O[C@H](C)C[C@H](N(C)C(=O)N(C)c4ccccn4)[C@H]3O)[C@](C)(O)C[C@@H](C)CN[C@H](C)[C@@H](O)[C@](C)(O)[C@@H](CC)OC(=O)[C@@H]2C)C[C@@]1(C)OC [Example H-45, 1-((2S,3R,4S,6R)-2-(((2R,3S,4R,5R,8R,10R,11R,12S,13S,14R)-2-ethyl-3,4,10-trihydroxy-13-(((2R,4R,5S,6S)-5-hydroxy-4-methoxy-4,6-dimethyl-5-((propylamino)methyl)tetrahydro-2H-pyran-2-yl)oxy)-3,5,8,10,12,14-hexamethyl-15-oxo-1-oxa-6-azacyclopentadecan-11-yl)oxy)-3-hydroxy-6-methyltetrahydro-2H-pyran-4-yl)-1,3-dimethyl-3-(pyridin-2-yl)urea] | 130 | 250 | 109 |  |  |
| CC[C@H]1OC(=O)[C@H](C)[C@@H](O[C@H]2C[C@@](C)(OC)[C@H](O)[C@H](C)O2)[C@H](C)[C@@H](O[C@@H]2O[C@H](C)C[C@H](N(C)C(=O)N(C)c3ccccc3)[C@H]2O)[C@](C)(O)C[C@@H](C)CN[C@H](C)[C@@H](O)[C@]1(C)O [Example B-3a, 1-((2S,3R,4S,6R)-2-(((2R,3S,4R,5R,8R,10R,11R,12S,13S,14R)-2-ethyl-3,4,10-trihydroxy-13-(((2R,4R,5R,6S)-5-hydroxy-4-methoxy-4,6-dimethyltetrahydro-2H-pyran-2-yl)oxy)-3,5,8,10,12,14-hexamethyl-15-oxo-1-oxa-6-azacyclopentadecan-11-yl)oxy)-3-hydroxy-6-methyltetrahydro-2H-pyran-4-yl)-1,3-dimethyl-3-phenylurea] | 26 | 16 | 12 |  |  |
| CC[C@H]1OC(=O)[C@H](C)[C@@H](O[C@H]2C[C@@](C)(OC)[C@@](C)(O)[C@H](C)O2)[C@H](C)[C@@H](O[C@@H]2O[C@H](C)C[C@H](N(C)C(=O)N(C)c3ccccc3)[C@H]2O)[C@](C)(O)C[C@@H](C)CN[C@H](C)[C@@H](O)[C@]1(C)O [Example B-1, 1-((2S,3R,4S,6R)-2-(((2R,3S,4R,5R,8R,10R,11R,12S,13S,14R)-2-ethyl-3,4,10-trihydroxy-13-(((2R,4R,5S,6S)-5-hydroxy-4-methoxy-4,5,6-trimethyltetrahydro-2H-pyran-2-yl)oxy)-3,5,8,10,12,14-hexamethyl-15-oxo-1-oxa-6-azacyclopentadecan-11-yl)oxy)-3-hydroxy-6-methyltetrahydro-2H-pyran-4-yl)-1,3-dimethyl-3-phenylurea] | 31 | 40 | 25 |  |  |
